Measurements taken from article PMC5513037, “Examining the influence of specificity ligands and ATP-competitive ligands on the overall effectiveness of bivalent kinase inhibitors” (Proteome Science, 2017).

Tests used:
Experiment in all cases: KAM-matrix competition in K562 lysate;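 as to 0.001 uM KAM: median log10 fold change of treatment over DMSO control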;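 as to 0.01 uM KAM: median log10 fold change of treatment over DMSO control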;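 as to 0.1 uM KAM: median log10 fold change of treatment over DMSO control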;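 as to 1 uM KAM: median log10 fold change of treatment over DMSO control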;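 as to 10 uM KAM: median log10 fold change of treatment over DMSO control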
Type in all cases: binding
CDK5 = target: T1, CDK5 (Homo sapiens, UniProt Q00535)
T1 construct: endogenous in cells; host or cells: K562
Description: (§1) Supplement 12953_2017_125_MOESM1_ESM.zip/MS_Supp Info.xlsx, sheet "KAM" | column: 10 uM KAM; 1 uM KAM; 0.1 uM KAM; 0.01 uM KAM; 0.001 uM KAM; RB50

IRAK4 = target: T2, IRAK4 (Homo sapiens, UniProt Q9NWZ3)
T2 construct: endogenous in cells; host or cells: K562
T2 sequence (Q9NWZ3 1-460): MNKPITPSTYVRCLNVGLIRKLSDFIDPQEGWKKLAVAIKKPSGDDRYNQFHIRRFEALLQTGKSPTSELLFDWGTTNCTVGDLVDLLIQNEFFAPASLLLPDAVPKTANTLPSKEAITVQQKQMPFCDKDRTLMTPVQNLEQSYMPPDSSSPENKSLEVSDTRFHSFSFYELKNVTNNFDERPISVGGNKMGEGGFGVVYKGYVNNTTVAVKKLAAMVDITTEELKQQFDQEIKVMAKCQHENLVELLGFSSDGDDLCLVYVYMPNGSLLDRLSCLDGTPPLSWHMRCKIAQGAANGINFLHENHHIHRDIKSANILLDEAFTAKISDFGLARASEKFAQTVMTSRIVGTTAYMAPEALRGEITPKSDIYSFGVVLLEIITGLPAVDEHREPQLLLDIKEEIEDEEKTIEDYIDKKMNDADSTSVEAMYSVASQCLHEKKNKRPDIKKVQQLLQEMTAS
Description: as §1

MAPKAPK5 = target: T3, MAPKAPK5 (Homo sapiens, UniProt Q8IW41)
T3 construct: endogenous in cells; host or cells: K562
T3 sequence (Q8IW41 1-473): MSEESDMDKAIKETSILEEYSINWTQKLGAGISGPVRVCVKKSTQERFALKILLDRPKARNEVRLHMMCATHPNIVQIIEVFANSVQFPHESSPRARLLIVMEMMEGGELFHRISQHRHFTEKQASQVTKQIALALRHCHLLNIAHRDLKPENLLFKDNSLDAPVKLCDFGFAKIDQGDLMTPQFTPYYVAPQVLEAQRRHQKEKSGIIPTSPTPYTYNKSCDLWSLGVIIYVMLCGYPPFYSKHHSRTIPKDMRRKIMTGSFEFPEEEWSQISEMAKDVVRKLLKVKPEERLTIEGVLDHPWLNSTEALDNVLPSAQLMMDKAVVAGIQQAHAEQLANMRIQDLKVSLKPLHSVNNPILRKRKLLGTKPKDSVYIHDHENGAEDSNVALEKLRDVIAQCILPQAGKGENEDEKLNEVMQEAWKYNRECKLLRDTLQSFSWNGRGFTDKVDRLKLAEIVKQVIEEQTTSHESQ
Description: as §1

PKMYT1 = target: T4, PKMYT1 (Homo sapiens, UniProt Q99640);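 as to 0.001 uM KAM: median log10 fold change of treatment over DMSO control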;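 as to 0.01 uM KAM: median log10 fold change of treatment over DMSO control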;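 as to 0.1 uM KAM: median log10 fold change of treatment over DMSO control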;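 as to 1 uM KAM: median log10 fold change of treatment over DMSO control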;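 as to 10 uM KAM: median log10 fold change of treatment over DMSO control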
T4 construct: endogenous in cells; host or cells: K562
T4 sequence (Q99640 1-499): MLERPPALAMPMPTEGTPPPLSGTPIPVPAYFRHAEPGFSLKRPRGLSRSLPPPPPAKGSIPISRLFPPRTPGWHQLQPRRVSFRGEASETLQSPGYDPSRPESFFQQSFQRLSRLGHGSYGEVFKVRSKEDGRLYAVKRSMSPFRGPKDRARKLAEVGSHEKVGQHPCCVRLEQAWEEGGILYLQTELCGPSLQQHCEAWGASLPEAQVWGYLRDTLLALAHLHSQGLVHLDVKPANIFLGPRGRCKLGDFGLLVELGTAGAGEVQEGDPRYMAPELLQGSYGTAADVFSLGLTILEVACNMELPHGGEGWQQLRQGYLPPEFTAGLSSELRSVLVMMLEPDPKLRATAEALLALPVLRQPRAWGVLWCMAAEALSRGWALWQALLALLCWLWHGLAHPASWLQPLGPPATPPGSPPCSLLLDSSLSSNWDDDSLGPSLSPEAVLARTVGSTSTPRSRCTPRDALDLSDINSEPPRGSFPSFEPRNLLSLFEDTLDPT
Description: as §1

PLK1 = target: T5, PLK1 (Homo sapiens, UniProt P53350);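 as to 0.001 uM KAM: median log10 fold change of treatment over DMSO control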;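 as to 0.01 uM KAM: median log10 fold change of treatment over DMSO control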;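 as to 0.1 uM KAM: median log10 fold change of treatment over DMSO control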;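 as to 1 uM KAM: median log10 fold change of treatment over DMSO control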;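 as to 10 uM KAM: median log10 fold change of treatment over DMSO control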
T5 construct: endogenous in cells; host or cells: K562
Description: as §1

SMG1 = target: T6, SMG1 (Homo sapiens, UniProt Q96Q15);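 as to 0.001 uM KAM: median log10 fold change of treatment over DMSO control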;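 as to 0.01 uM KAM: median log10 fold change of treatment over DMSO control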;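 as to 0.1 uM KAM: median log10 fold change of treatment over DMSO control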;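 as to 1 uM KAM: median log10 fold change of treatment over DMSO control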;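 as to 10 uM KAM: median log10 fold change of treatment over DMSO control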
T6 construct: endogenous in cells; host or cells: K562
Description: as §1

STK17B = target: T7, STK17B (Homo sapiens, UniProt O94768)
T7 construct: endogenous in cells; host or cells: K562 cells (lysate)
T7 sequence (O94768 1-372): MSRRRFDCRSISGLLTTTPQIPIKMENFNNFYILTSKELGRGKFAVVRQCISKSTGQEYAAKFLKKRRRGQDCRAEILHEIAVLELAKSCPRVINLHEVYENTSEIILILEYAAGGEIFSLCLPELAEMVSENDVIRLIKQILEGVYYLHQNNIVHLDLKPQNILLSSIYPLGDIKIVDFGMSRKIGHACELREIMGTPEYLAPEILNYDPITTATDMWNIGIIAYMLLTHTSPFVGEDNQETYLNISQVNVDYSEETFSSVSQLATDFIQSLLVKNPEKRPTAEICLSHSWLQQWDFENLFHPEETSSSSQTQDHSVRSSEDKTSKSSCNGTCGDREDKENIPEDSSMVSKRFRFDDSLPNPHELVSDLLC
Description: as §1

WEE1 = target: T8, WEE1 (Homo sapiens, UniProt P30291)
T8 construct: endogenous in cells; host or cells: K562
Description: as §1

[1] = read-out: RB50 (the source's name)
[2] = KAM 0.001-10 uM, read-out: RB50 (the source's name)

T1 sequence (Q00535 whole entry): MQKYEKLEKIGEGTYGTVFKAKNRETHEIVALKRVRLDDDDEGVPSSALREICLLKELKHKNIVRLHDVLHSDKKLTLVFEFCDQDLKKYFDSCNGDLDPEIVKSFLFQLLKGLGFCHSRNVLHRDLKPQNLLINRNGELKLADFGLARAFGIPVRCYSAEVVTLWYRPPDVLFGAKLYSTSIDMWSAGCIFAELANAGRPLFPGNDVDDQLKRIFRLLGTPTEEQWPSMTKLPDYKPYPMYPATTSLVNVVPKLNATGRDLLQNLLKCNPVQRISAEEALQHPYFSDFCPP
T8 sequence (P30291 whole entry): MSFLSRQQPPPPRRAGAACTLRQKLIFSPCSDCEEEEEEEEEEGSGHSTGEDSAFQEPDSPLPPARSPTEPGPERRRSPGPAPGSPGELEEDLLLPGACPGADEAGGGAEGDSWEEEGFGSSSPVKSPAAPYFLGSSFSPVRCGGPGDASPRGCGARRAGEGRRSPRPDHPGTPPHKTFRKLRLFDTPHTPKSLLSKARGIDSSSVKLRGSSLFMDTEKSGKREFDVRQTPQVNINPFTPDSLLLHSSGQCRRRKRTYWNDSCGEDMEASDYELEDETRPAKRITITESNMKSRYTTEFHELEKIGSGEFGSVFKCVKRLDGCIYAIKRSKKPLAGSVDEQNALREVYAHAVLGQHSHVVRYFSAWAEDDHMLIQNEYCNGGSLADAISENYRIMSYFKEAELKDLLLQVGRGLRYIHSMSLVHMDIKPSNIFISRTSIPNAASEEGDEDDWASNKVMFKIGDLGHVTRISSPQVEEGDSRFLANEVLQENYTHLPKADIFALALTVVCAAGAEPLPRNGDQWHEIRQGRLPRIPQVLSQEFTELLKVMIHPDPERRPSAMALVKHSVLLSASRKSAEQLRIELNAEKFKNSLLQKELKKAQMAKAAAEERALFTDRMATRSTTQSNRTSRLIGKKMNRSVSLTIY
T5 sequence (P53350 whole entry): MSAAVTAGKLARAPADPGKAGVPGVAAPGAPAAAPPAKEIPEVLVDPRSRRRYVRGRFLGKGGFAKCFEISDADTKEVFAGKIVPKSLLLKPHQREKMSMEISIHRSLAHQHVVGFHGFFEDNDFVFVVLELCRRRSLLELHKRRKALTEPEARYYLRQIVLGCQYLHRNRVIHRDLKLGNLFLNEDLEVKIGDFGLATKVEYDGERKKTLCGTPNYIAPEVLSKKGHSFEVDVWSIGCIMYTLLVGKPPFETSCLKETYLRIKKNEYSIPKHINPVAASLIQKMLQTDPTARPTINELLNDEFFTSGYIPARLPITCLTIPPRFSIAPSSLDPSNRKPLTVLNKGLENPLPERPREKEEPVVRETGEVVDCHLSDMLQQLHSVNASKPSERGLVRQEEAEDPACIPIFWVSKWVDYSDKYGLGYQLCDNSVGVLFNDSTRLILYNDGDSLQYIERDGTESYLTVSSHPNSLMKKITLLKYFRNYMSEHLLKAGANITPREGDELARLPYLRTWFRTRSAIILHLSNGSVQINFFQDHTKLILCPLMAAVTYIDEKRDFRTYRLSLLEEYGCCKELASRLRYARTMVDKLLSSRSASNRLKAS

N#CCc1ccc(Nc2nc(NCCCN)cc(Nc3cc(C4CC4)[nH]n3)n2)cc1 [KAM]
median Log10 fold change (CDK5; 0.001 uM KAM): 0.003574
median Log10 fold change (CDK5; 0.01 uM KAM): 0.001841
median Log10 fold change (CDK5; 0.1 uM KAM): -0.2018
median Log10 fold change (CDK5; 1 uM KAM): -0.5013
median Log10 fold change (CDK5; 10 uM KAM): -0.5902
IC50 (CDK5; [1]): 0.298 µM
median Log10 fold change (IRAK4; 0.001 uM KAM): -0.01083
median Log10 fold change (IRAK4; 0.01 uM KAM): -0.003774
median Log10 fold change (IRAK4; 0.1 uM KAM): -0.1174
median Log10 fold change (IRAK4; 1 uM KAM): -0.3495
median Log10 fold change (IRAK4; 10 uM KAM): -0.4574
IC50 (IRAK4; [1]): 0.922 µM
median Log10 fold change (MAPKAPK5; 0.001 uM KAM): 0.03286
median Log10 fold change (MAPKAPK5; 0.01 uM KAM): -0.006541
median Log10 fold change (MAPKAPK5; 0.1 uM KAM): -0.1605
median Log10 fold change (MAPKAPK5; 1 uM KAM): -0.3604
median Log10 fold change (MAPKAPK5; 10 uM KAM): -0.4852
IC50 (MAPKAPK5; [1]): 0.729 µM
IC50 (PKMYT1; [2]): > 10 µM
0.001 uM KAM (PKMYT1; relative to 0 uM KAM = 0): -0.05315
0.01 uM KAM (PKMYT1; relative to 0 uM KAM = 0): -0.03451
0.1 uM KAM (PKMYT1; relative to 0 uM KAM = 0): -0.2607
1 uM KAM (PKMYT1; relative to 0 uM KAM = 0): -0.4249
10 uM KAM (PKMYT1; relative to 0 uM KAM = 0): -0.2726
IC50 (PLK1; [2]): > 10 µM
0.001 uM KAM (PLK1; relative to 0 uM KAM = 0): -0.04372
0.01 uM KAM (PLK1; relative to 0 uM KAM = 0): 0.0006975
0.1 uM KAM (PLK1; relative to 0 uM KAM = 0): -0.07002
1 uM KAM (PLK1; relative to 0 uM KAM = 0): -0.1195
10 uM KAM (PLK1; relative to 0 uM KAM = 0): -0.1377
IC50 (SMG1; [2]): > 10 µM
0.001 uM KAM (SMG1; relative to 0 uM KAM = 0): -0.09325
0.01 uM KAM (SMG1; relative to 0 uM KAM = 0): 0.027
0.1 uM KAM (SMG1; relative to 0 uM KAM = 0): 0.0044
1 uM KAM (SMG1; relative to 0 uM KAM = 0): 0.06163
10 uM KAM (SMG1; relative to 0 uM KAM = 0): 0.05027
median Log10 fold change (STK17B; 0.001 uM KAM): 0.02659
median Log10 fold change (STK17B; 0.01 uM KAM): 0.008023
median Log10 fold change (STK17B; 0.1 uM KAM): -0.1097
median Log10 fold change (STK17B; 1 uM KAM): -0.3588
median Log10 fold change (STK17B; 10 uM KAM): -0.5971
IC50 (STK17B; [1]): 0.799 µM
median Log10 fold change (WEE1; 0.001 uM KAM): -0.01698
median Log10 fold change (WEE1; 0.01 uM KAM): -0.006292
median Log10 fold change (WEE1; 0.1 uM KAM): -0.1327
median Log10 fold change (WEE1; 1 uM KAM): -0.2838
median Log10 fold change (WEE1; 10 uM KAM): -0.4489
IC50 (WEE1; [1]): 1.32 µM
